Source: PMC12926979, “Ectopic, hepatic GLP-1R agonism enhances the weight loss efficacy of GLP-1 analogues” (Molecular Metabolism, 2026)

Key:
[1] = system: C57Bl6 mice; assay: Cardiovascular radiotelemetry (heart rate, mean arterial pressure); assay type: in vivo, mouse; conditions: Glp1r AAV treated mice; 0.5, 1 and 3 nmol/kg SC; Figure 2H
Source text: Male C57Bl6 mice (8–10 weeks old) were anesthetized with isoflurane and surgically implanted with pressure transmitters (PA-C10, DSI), with the catheter inserted into the left carotid artery and the body of the transmitter between the outer skin layer and abdomen wall in the left flank of the mouse. After recovering, they were singly housed and monitored in their home cages. Mice were given control and experimental AAV virus via tail vein injections at least 7 days prior to CV study. Transmitters were turned on via magnets and SC vehicle injections were administered 2 h after the onset of the light phase for baseline measurements. At t = 24 h, mice were grouped if needed and SC compound injections began. Stressors were allowed only from 9:00 AM to 11:00 AM during the light phase, with continuous sampling throughout the day. Measurements of pulse pressure, arterial pressures, and heart rate values were extracted with the DataQuest A.R.T. 4.1 software and averaged into 3-hour bins for analysis.

[2] = Pharmacokinetic study in WT DIO mice dosed with control or Glp1r expressing AAV; assay type: in vivo, mouse; conditions: Glp1r AAV treated vs control groups; Figure 2K
Procedure: Male C57Bl6 mice were randomized and evenly distributed to test groups (n = 8 per group) according to body weight. Animals received tail vein injection of the control AAV or mGLP-1R expressing AAV at a dose of 10^12 GC per mouse on day −7 for each study. […] Treatments were administered via daily SC injection for the duration of the study; dosage is indicated within each figure. Dose escalation regimens for each peptide were determined based on previously published studies. Body weight and food intake was measured every other day throughout the study.

[3] = biological target: T1, hGLP-1R (Homo sapiens, UniProt P43220); conditions: cited from earlier work
T1 construct: expressed in transfected cells
T1 sequence (P43220 24-463): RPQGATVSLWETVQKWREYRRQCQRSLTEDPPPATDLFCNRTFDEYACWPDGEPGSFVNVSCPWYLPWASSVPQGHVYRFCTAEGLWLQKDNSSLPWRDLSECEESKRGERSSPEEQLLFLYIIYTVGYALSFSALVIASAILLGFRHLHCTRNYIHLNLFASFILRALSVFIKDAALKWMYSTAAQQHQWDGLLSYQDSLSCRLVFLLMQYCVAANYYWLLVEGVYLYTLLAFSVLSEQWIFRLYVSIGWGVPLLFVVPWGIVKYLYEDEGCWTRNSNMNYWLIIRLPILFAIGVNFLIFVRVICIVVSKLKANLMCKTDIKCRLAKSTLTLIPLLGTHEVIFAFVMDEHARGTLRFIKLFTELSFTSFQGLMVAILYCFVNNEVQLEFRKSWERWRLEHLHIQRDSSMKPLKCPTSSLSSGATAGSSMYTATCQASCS
Source text: Second, agonism of the ectopic, hepatic GLP-1R creates a novel mechanism of drug clearance and may have effects on biodistribution.

Molecule	Heart rate effect of semaglutide + Glp1r AAV [1]	semaglutide clearance with ectopic hepatic GLP-1R [2]	GLP-1R internalization profile [3]
CC[C@H](C)[C@H](NC(=O)[C@H](Cc1ccccc1)NC(=O)[C@H](CCC(=O)O)NC(=O)[C@H](CCCCNC(=O)COCCOCCNC(=O)COCCOCCNC(=O)CC[C@H](NC(=O)CCCCCCCCCCCCCCCCC(=O)O)C(=O)O)NC(=O)[C@H](C)NC(=O)[C@H](C)NC(=O)[C@H](CCC(N)=O)NC(=O)CNC(=O)[C@H](CCC(=O)O)NC(=O)[C@H](CC(C)C)NC(=O)[C@H](Cc1ccc(O)cc1)NC(=O)[C@H](CO)NC(=O)[C@H](CO)NC(=O)[C@@H](NC(=O)[C@H](CC(=O)O)NC(=O)[C@H](CO)NC(=O)[C@@H](NC(=O)[C@H](Cc1ccccc1)NC(=O)[C@@H](NC(=O)CNC(=O)[C@H](CCC(=O)O)NC(=O)C(C)(C)NC(=O)[C@@H](N)Cc1cnc[nH]1)[C@@H](C)O)[C@@H](C)O)C(C)C)C(=O)N[C@@H](C)C(=O)N[C@@H](Cc1c[nH]c2ccccc12)C(=O)N[C@@H](CC(C)C)C(=O)N[C@H](C(=O)N[C@@H](CCCNC(=N)N)C(=O)NCC(=O)N[C@@H](CCCNC(=N)N)C(=O)NCC(=O)O)C(C)C [semaglutide]	reduces this effect	significant increase in semaglutide clearance	–
tirzepatide	–	–	low receptor internalising profile
